The values below come from patent publication US20250195503A1, “TETRACYCLIC COMPOUND AND USE THEREOF” (SHANGHAI SHIJIANG BIOTECHNOLOGY TECHNOLOGY CO., LTD., priority 2022, published 2025).

Assay [1] relates to Daoy cell transfected with empty virus vector without carrying shRNA. Kind of assay: Mitochondria membrane potential difference by TMRM in Daoy cell transfected with empty virus vector. Format: cell-based, human. The note with it: CsA −, H2O2 +.
Assay [2] concerns Daoy cell transfected with virus vector carrying shRNA that could specificly induce the degradation of PPIF mRNA. Kind of assay: Mitochondria membrane potential difference by TMRM in Daoy cell transfected with virus vector carrying PPIF shRNA. Format: cell-based, human. The note with it: CsA −, H2O2 +.
A further assay has as its system Daoy cell. Kind of assay: Mitochondria membrane potential difference by TMRM in Daoy cell. Format: cell-based, human. The note with it: CsA −, H2O2 +. An excerpt:
The mitochondria permeability transition pore (mPTP) was a non-specific channel on the inner membrane of mitochondria, which could allow small molecules with molecular less than 1.5KD to pass freely, and its activity was affected by peroxides (such as H2O2), pH and calcium ions in mitochondria. […] For cells with active mitochondria permeability transition pore, adding peroxide (such as H2O2) could increase the activity of mitochondria permeability transition pore, resulting in a decrease in mitochondria membrane potential.

The test system of the next assay is mPTP-inactive Daoy cell. Put plainly: Inhibitory effect (IC50) on mPTP-inactive Daoy cell (PPIF shRNA), Promega CellTiter-Glo kit. Format: cell-based. The note with it: Homo sapiens, Daoy cell transfected with virus vector carrying PPIF shRNA. On the technique in general: ATP-based viability assays read luminescence as a measure of living cells.
The subject of another assay is sh-DNMT1 NCI-H82 cell. Kind of assay: Inhibitory effect (IC50) on sh-DNMT1 NCI-H82 cell, Promega CellTiter-Glo kit. The note with it: Homo sapiens, DNMT1 knocked down NCI-H82 cell. Format: cell-based.
A further assay deals with mPTP-active Daoy cell. Put plainly: Inhibitory effect (IC50) on mPTP-active Daoy cell, Promega CellTiter-Glo kit. The note with it: Homo sapiens, Daoy cell transfected with empty virus vector without PPIF shRNA. It is filed as cell-based.
A further assay relates to ov-NNMT NCI-H82 cell. Put plainly: Inhibitory effect (IC50) on ov-NNMT NCI-H82 cell, Promega CellTiter-Glo kit. It is filed as cell-based. The note with it: Homo sapiens, NNMT protein overexpressed NCI-H82 cell.
The next assay has as its system Con-NCI-H82 cell. Put plainly: Inhibitory effect (IC50) on Con-NCI-H82 cell, Promega CellTiter-Glo kit. The note with it: Homo sapiens, NCI-H82 cell transfected with empty virus vector. Format: cell-based.

As for `OO` [H2O2], the “Relative TMRM signal intensity (%), mean value” in assay [1] worked out at 79%; in assay [2], 95%; with Daoy cell, 82%.
As usually defined, the IC50 is the concentration that inhibits the measured activity by half. Low readings indicate higher potency, high ones lower potency. For the compound `COc1ccc2c(c1OC)CN1CCc3cc4c(cc3C1=C2)OCO4` [compound AB31713], the IC50 with mPTP-inactive Daoy cell came to 12.5 µM; with sh-DNMT1 NCI-H82 cell, 14.6 µM; with mPTP-active Daoy cell, 25 µM.
Consider `COc1ccc2c(c1OC)C(C(Cl)(Cl)Cl)N1CCc3cc4c(cc3C1=C2)OCO4` (stereo not shown) [compound AB31714], for which the IC50 amounted to 12.5 µM with mPTP-inactive Daoy cell; 14.3 µM with sh-DNMT1 NCI-H82 cell; 26.7 µM with mPTP-active Daoy cell; 7.04 µM with ov-NNMT NCI-H82 cell; 2.33 µM in the assay with Con-NCI-H82 cell.
Taken in the same sequence, the figures for `CCCCC1c2c(ccc(OC)c2OC)C=C2c3cc4c(cc3CCN21)OCO4` (stereo not shown) [compound AB31875] were 6.25 µM, 12.3 µM, 14.6 µM, 10.1 µM and 3.27 µM.
Taken in the same sequence, the figures for `C=CCCC1c2c(ccc(OC)c2OC)C=C2c3cc4c(cc3CCN21)OCO4` (stereo not shown) [compound AB31882] were 9.22 µM, 18.8 µM, 19.3 µM, 11.6 µM and 5.16 µM.
On the same counts, the results for `CCC1c2c(ccc(OC)c2OC)C=C2c3cc4c(cc3CCN21)OCO4` (stereo not shown) [compound AB31883] are 2.45 µM, 5.98 µM, 5.64 µM, 5.56 µM and 2.18 µM.
With `CCCC1c2c(ccc(OC)c2OC)C=C2c3cc4c(cc3CCN21)OCO4` (stereo not shown) [compound AB31884], the concentration for half-maximal inhibition (IC50) in the assay with mPTP-inactive Daoy cell was found to be 2.71 µM; in the assay on sh-DNMT1 NCI-H82 cell it was 8.64 µM; in the assay with mPTP-active Daoy cell, 5.76 µM; in the assay on ov-NNMT NCI-H82 cell, 6.32 µM; in the assay on Con-NCI-H82 cell, 2.31 µM.
As to `COc1ccc2c(c1OC)C(C(C)C)N1CCc3cc4c(cc3C1=C2)OCO4` (stereo not shown) [compound AB31885], the IC50 is 3.17 µM in the assay with mPTP-inactive Daoy cell; 5.99 µM in the assay on sh-DNMT1 NCI-H82 cell; 6.43 µM with mPTP-active Daoy cell; 4.13 µM in the assay on ov-NNMT NCI-H82 cell; 1.12 µM in the assay with Con-NCI-H82 cell.
Taken in the same sequence, the figures for `COc1ccc2c(c1OC)C(C)N1CCc3cc4c(cc3C1=C2)OCO4` (stereo not shown) [compound AB31886] were 5.74 µM, 9.66 µM, 14.3 µM, 8.48 µM and 3.22 µM.
`C=CCC1c2c(ccc(OC)c2OC)C=C2c3cc4c(cc3CCN21)OCO4` (stereo not shown) [compound AB31891]: the IC50 in the assay on mPTP-inactive Daoy cell worked out at 3.12 µM; with sh-DNMT1 NCI-H82 cell, 5.73 µM; in the assay on mPTP-active Daoy cell, 6.22 µM; with ov-NNMT NCI-H82 cell it was 6.55 µM; in the assay on Con-NCI-H82 cell it was 2.06 µM.
For the compound `COc1ccc2c(c1OC)C(C1CCCCC1)N1CCc3cc4c(cc3C1=C2)OCO4` (stereo not shown) [compound AB31893], the IC50 was 2.5 µM in the assay on mPTP-inactive Daoy cell and 5.14 µM in the assay on mPTP-active Daoy cell.
Turning to `COc1ccc2c(c1OC)C(C1CCCC1)N1CCc3cc4c(cc3C1=C2)OCO4` (stereo not shown) [compound AB31900], the IC50 came to 2.56 µM in the assay with mPTP-inactive Daoy cell, 6.58 µM in the assay with sh-DNMT1 NCI-H82 cell and 5.37 µM in the assay with mPTP-active Daoy cell.
As to `COc1ccc2c(c1OC)C(C(F)(F)F)N1CCc3cc4c(cc3C1=C2)OCO4` (stereo not shown) [compound AB35403], the half-maximal inhibitory concentration (IC50) was found to be 28.6 µM in the assay on mPTP-inactive Daoy cell; 24.2 µM with sh-DNMT1 NCI-H82 cell; 60.1 µM with mPTP-active Daoy cell; 16.8 µM with ov-NNMT NCI-H82 cell; 6.91 µM with Con-NCI-H82 cell.
Taken in the same sequence, the figures for `CCCCCCC1c2c(ccc(OC)c2OC)C=C2c3cc4c(cc3CCN21)OCO4` (stereo not shown) [compound AB35435] were 0.69 µM, 3.65 µM, 1.32 µM, 2.66 µM and 0.72 µM.
